Measurements published in PubChem BioAssay AID248 (DTP/NCI, 2004).
Values joined by “and” are separate entries in the source; they are usually repeats but may differ in a detail not shown here. Equal values may be shown once. Inconclusive results and toxic doses are left out. Rule as the data show it: active = T/C of 150% or more; inactive = T/C below 125%.

Tested on: L1210 leukemia ip in BDF1 mice, survival T/C
Test: NCI In Vivo Anticancer Drug Screen. Data for tumor model L1210 Leukemia (intraperitoneal) in B6D2F1 (BDF1) mice
Settings: endpoint: mean survival time, higher = longer survival
In short: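 Value reflects the ratio of survival in compound-treated mice to survival in vehicle-treated controls, with both groups carrying the same transplanted tumor.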

[1] = dose: 100.0 mg/kg/injection, schedule: Q01DX009 (ip), vehicle: Klucel (hydroxypropylcellulose) (HPC)
[2] = dose: 200.0 mg/kg/injection, schedule: Q01DX009 (ip), vehicle: Klucel (hydroxypropylcellulose) (HPC)
[3] = dose: 400.0 mg/kg/injection, schedule: Q01DX009 (ip), vehicle: Klucel (hydroxypropylcellulose) (HPC)
[4] = dose: 100.0 mg/kg/injection, schedule: Q04DX003 (ip), vehicle: Klucel (hydroxypropylcellulose) (HPC)
[5] = dose: 200.0 mg/kg/injection, schedule: Q04DX003 (ip), vehicle: Klucel (hydroxypropylcellulose) (HPC)
[6] = dose: 400.0 mg/kg/injection, schedule: Q04DX003 (ip), vehicle: Klucel (hydroxypropylcellulose) (HPC)
[7] = dose: 100.0 mg/kg/injection, schedule: Q04DX002 (ip), vehicle: Klucel (hydroxypropylcellulose) (HPC)
[8] = dose: 100.0 mg/kg/injection, schedule: Q01DX001 (ip), vehicle: saline
[9] = dose: 200.0 mg/kg/injection, schedule: Q04DX002 (ip), vehicle: Klucel (hydroxypropylcellulose) (HPC)
[10] = dose: 400.0 mg/kg/injection, schedule: Q04DX002 (ip), vehicle: Klucel (hydroxypropylcellulose) (HPC)
[11] = dose: 100.0 mg/kg/injection, schedule: Q04DX002 (ip), vehicle: saline with Tween-80
[12] = dose: 200.0 mg/kg/injection, schedule: Q04DX002 (ip), vehicle: saline with Tween-80
[13] = dose: 400.0 mg/kg/injection, schedule: Q04DX002 (ip), vehicle: saline with Tween-80

Measured: T/C

NC(=O)N/N=C1/CCSc2ccc3c(c21)CCCC3
inactive: dose: 100.0 mg/kg/injection, schedule: Q01DX001 (ip), vehicle: Klucel (hydroxypropylcellulose) (HPC) 102 % of control | [1] 106 % of control | dose: 200.0 mg/kg/injection, schedule: Q01DX001 (ip), vehicle: Klucel (hydroxypropylcellulose) (HPC) 93 % of control | [2] 104 % of control | dose: 400.0 mg/kg/injection, schedule: Q01DX001 (ip), vehicle: Klucel (hydroxypropylcellulose) (HPC) 94 % of control | [3] 101 % of control

Cc1ccc(NC(=O)Oc2ccc(OC(=O)Cc3ccccc3)cc2)cc1NC(=O)Oc1ccc(OC(=O)Cc2ccccc2)cc1
inactive: dose: 100.0 mg/kg/injection, schedule: Q01DX009 (ip), vehicle: other 96 % of control | dose: 200.0 mg/kg/injection, schedule: Q01DX009 (ip), vehicle: other 98 % of control | dose: 400.0 mg/kg/injection, schedule: Q01DX009 (ip), vehicle: other 93 % of control

O=c1cc(-c2ccccc2)sc(-c2ccccc2)c1
inactive: dose: 75.0 mg/kg/injection, schedule: Q04DX003 (ip), vehicle: saline 100 % of control | [4] 103 % of control | dose: 150.0 mg/kg/injection, schedule: Q04DX003 (ip), vehicle: saline 95 % of control | [5] 105 % of control | dose: 300.0 mg/kg/injection, schedule: Q04DX003 (ip), vehicle: saline 92 % of control | [6] 103 % of control

COc1ccc(OC(=O)Nc2cc(Cl)ccc2C)cc1
inactive: [1] 94 % of control | [2] 91 % of control | [3] 94 % of control

Cc1n[nH]c(=S)n1N
inactive: dose: 100.0 mg/kg/injection, schedule: Q04DX003 (ip), vehicle: saline with Tween-80 115 % of control | dose: 200.0 mg/kg/injection, schedule: Q04DX003 (ip), vehicle: saline with Tween-80 102 % of control | dose: 400.0 mg/kg/injection, schedule: Q04DX003 (ip), vehicle: saline with Tween-80 96 % of control

Cc1ccc(CCCC#N)[nH]1
inactive: dose: 100.0 mg/kg/injection, schedule: Q01DX001 (sc), vehicle: carboxymethylcellulose (CMC) 110 % of control | dose: 200.0 mg/kg/injection, schedule: Q01DX001 (sc), vehicle: carboxymethylcellulose (CMC) 113 % of control

CC(C)(C)c1cc(/C=N/NC(=O)CNC(=O)Nc2cccc(C(F)(F)F)c2)cc(C(C)(C)C)c1O
inactive: dose: 100.0 mg/kg/injection, schedule: Q01DX001 (ip), vehicle: gum acacia 92 % of control and 94 % of control | dose: 100.0 mg/kg/injection, schedule: Q04DX002 (ip), vehicle: gum acacia 98 % of control and 90 % of control | dose: 100.0 mg/kg/injection, schedule: Q04DX003 (ip), vehicle: gum acacia 99 % of control and 87 % of control | dose: 200.0 mg/kg/injection, schedule: Q01DX001 (ip), vehicle: gum acacia 94 % of control and 90 % of control | dose: 200.0 mg/kg/injection, schedule: Q04DX002 (ip), vehicle: gum acacia 93 % of control | dose: 200.0 mg/kg/injection, schedule: Q04DX003 (ip), vehicle: gum acacia 92 % of control and 96 % of control | dose: 400.0 mg/kg/injection, schedule: Q01DX001 (ip), vehicle: gum acacia 94 % of control and 102 % of control | dose: 400.0 mg/kg/injection, schedule: Q04DX002 (ip), vehicle: gum acacia 93 % of control and 87 % of control | dose: 400.0 mg/kg/injection, schedule: Q04DX003 (ip), vehicle: gum acacia 92 % of control and 89 % of control

O=c1[nH][nH]c(=O)c2c(C3OC(CO)C(O)C3O)[nH]nc12 (configuration not stated)
inactive: dose: 100.0 mg/kg/injection, schedule: Q01DX005 (ip), vehicle: saline 90 % of control | dose: 200.0 mg/kg/injection, schedule: Q01DX005 (ip), vehicle: saline 97 % of control

O=c1cnc2ccc3ccccc3c2[nH]1
inactive: dose: 25.0 mg/kg/injection, schedule: Q04DX002 (ip), vehicle: Klucel (hydroxypropylcellulose) (HPC) 97 % of control | dose: 50.0 mg/kg/injection, schedule: Q04DX002 (ip), vehicle: Klucel (hydroxypropylcellulose) (HPC) 93 % of control | [7] 90 % of control

O=S(=O)(O)c1ccc(-c2nc(-c3ccccc3)c(-c3ccccc3)[nH]2)cc1
inactive: dose: 100.0 mg/kg/injection, schedule: Q01DX009 (ip), vehicle: saline 102 % of control | dose: 200.0 mg/kg/injection, schedule: Q01DX009 (ip), vehicle: saline 102 % of control | dose: 400.0 mg/kg/injection, schedule: Q01DX009 (ip), vehicle: saline 101 % of control

CCOC(=O)CC(c1ccccc1)C(C(=O)OCC)C(=O)OCC (configuration not stated)
inactive: [8] 106 % of control | dose: 200.0 mg/kg/injection, schedule: Q01DX001 (ip), vehicle: saline 103 % of control | dose: 400.0 mg/kg/injection, schedule: Q01DX001 (ip), vehicle: saline 103 % of control

CC(Oc1cc(Cl)c(Cl)cc1Cl)C(=O)OCc1ccco1 (configuration not stated)
inactive: dose: 100.0 mg/kg/injection, schedule: Q01DX009 (ip), vehicle: saline with Tween-80 110 % of control | [7] 100 % of control | dose: 200.0 mg/kg/injection, schedule: Q01DX009 (ip), vehicle: saline with Tween-80 100 % of control | [9] 103 % of control | dose: 400.0 mg/kg/injection, schedule: Q01DX009 (ip), vehicle: saline with Tween-80 104 % of control | [10] 100 % of control

CC/C(=C(\CC)c1ccc(OCCOS(=O)(=O)c2ccc(C)cc2)cc1)c1ccc(OCCOS(=O)(=O)c2ccc(C)cc2)cc1
inactive: dose: 6.25 mg/kg/injection, schedule: Q04DX002 (ip), vehicle: saline 101 % of control | dose: 12.5 mg/kg/injection, schedule: Q04DX002 (ip), vehicle: saline 105 % of control | dose: 25.0 mg/kg/injection, schedule: Q04DX002 (ip), vehicle: saline 97 % of control

O=C(CC(C(=O)c1ccccc1)c1ccccc1)c1ccccc1 (configuration not stated)
inactive: [1] 93 % of control and 89 % of control | [2] 103 % of control | [3] 94 % of control and 103 % of control

CCOC(=O)c1cc(/C=C/C=O)oc1N
inactive: [11] 106 % of control | [12] 101 % of control | [13] 97 % of control

N#C/C(=C\c1cccn1Cc1ccc2ccccc2c1)C(N)=O
inactive: [11] 104 % of control | [12] 96 % of control | [13] 93 % of control

CCN(CC)CCCNc1ccnc2cc(Cl)ccc12
inactive: [8] 94 % of control

NC1CCS(=O)(=O)CC1
inactive: dose: 100.0 mg/kg/injection, schedule: Q01DX001 (ip), vehicle: water 93 % of control | dose: 200.0 mg/kg/injection, schedule: Q01DX001 (ip), vehicle: water 101 % of control | dose: 400.0 mg/kg/injection, schedule: Q01DX001 (ip), vehicle: water 104 % of control

CCC(Cl)COP(=O)(OCC(Cl)CC)OC(C(C)C)P(=O)(OCC(Cl)CC)OCC(Cl)CC (configuration not stated)
inactive: [4] 95 % of control | [5] 93 % of control | [6] 90 % of control

CC1(C)CC(=O)C2C(C1)Nc1ccccc1NC2c1ccccc1[N+](=O)[O-] (configuration not stated)
inactive: [7] 103 % of control and 110 % of control | [9] 98 % of control and 92 % of control | [10] 95 % of control

Cn1c(/N=C/c2ccc([N+](=O)[O-])cc2)c(N)c(=O)n(C)c1=O
inactive: dose: 50.0 mg/kg/injection, schedule: Q01DX001 (ip), vehicle: carboxymethylcellulose (CMC) 90 % of control | dose: 100.0 mg/kg/injection, schedule: Q01DX001 (ip), vehicle: carboxymethylcellulose (CMC) 93 % of control | dose: 200.0 mg/kg/injection, schedule: Q01DX001 (ip), vehicle: carboxymethylcellulose (CMC) 88 % of control | dose: 400.0 mg/kg/injection, schedule: Q01DX001 (ip), vehicle: carboxymethylcellulose (CMC) 88 % of control

CC(=O)Nc1ccc[n+](C)c1
inactive: dose: 100.0 mg/kg/injection, schedule: Q04DX003 (ip), vehicle: saline 108 % of control | dose: 200.0 mg/kg/injection, schedule: Q04DX003 (ip), vehicle: saline 105 % of control | dose: 400.0 mg/kg/injection, schedule: Q04DX003 (ip), vehicle: saline 100 % of control

BrCc1cccc2cccnc12
inactive: dose: 1.56 mg/kg/injection, schedule: Q01DX009 (ip), vehicle: saline with Tween-80 93 % of control | dose: 3.13 mg/kg/injection, schedule: Q01DX009 (ip), vehicle: saline with Tween-80 96 % of control | dose: 6.25 mg/kg/injection, schedule: Q01DX009 (ip), vehicle: saline with Tween-80 91 % of control | dose: 12.5 mg/kg/injection, schedule: Q01DX009 (ip), vehicle: saline with Tween-80 91 % of control
